Data: patent publication US20050004029A1, “Methods and compositions for treating vascular leak using hepatocyte growth factor” (priority 2001, published 2005)
Several values for one entry are separate records, joined by “and”; a condition that tells them apart may be missing. Equal entries are not always repeated.

Assays:
Rac GTPase = Rac GTPase activity, p21 Rac-binding domain assay; type: cell-based; conditions: HGF 10 ng/mL or Sph-1-P 1 μM for 1 or 5 min
Procedure: Endothelial cells grown in 100 mm dishes were incubated with agonists in serum-free M199. Cells were lysed in 500 μl Mg^2+ lysis buffer (Upstate Biotechnology, Lake Placid, N.Y.) and homogenized by pipetting. After a brief centrifugation to remove the cell debris, 300 μl of supernatant was incubated with the agarose-conjugated p21-binding domain (PBD) of human PAK-1 (10 μg, 30 min, Upstate Biotechnology). The agarose beads were washed with 1 ml of lysis buffer 5 times and re-suspended in 30 μl of 2×SDS buffer. After 10 min centrifugation at 14,000 g, 15 μl of supernatant from each sample was subjected to electrophoresis in 15% PAGE. […] For total Rac protein measurement, 5 μl of the original cell lysates were used for electrophoresis and western analysis. […] Pulmonary artery endothelial cells were incubated with HGF (10 ng/mL) or Sph-1-P (1 μM) for 1 or 5 min. Cells were lysed, supernatants collected, and activated GTP-bound Rac was precipitated by agarose-conjugated human PAK-1 p21-binding domain and subsequently immunoblotted by anti-Rac mAb. Total Rac protein was detected using cell lysates.

[1] = system: Human pulmonary artery endothelial cells; experiment: Transendothelial electrical resistance (TER) of human pulmonary artery endothelial cell monolayers; type: cell-based
Procedure: Bovine pulmonary artery endothelial cells were purchased from the American Type Culture Collection (ATCC®, Rockville, Md.) and utilized at passage 19-24. Cells were maintained in Medium 199 (Life Technologies, Rockville, Md.) supplemented with 20% (v/v) colostrum-free bovine serum (CFBS) (Irvine Scientific, Santa Ana, Calif.), 15 μg/ml endothelial cell growth supplement (Upstate Biotechnology, Lake Placid, N.Y.), 1% antibiotic and antimycotic, and 0.1 mM non-essential amino acids (Life Technologies). Human pulmonary artery endothelial cells were purchased from Clonetics (Walkersville, Md.), cultured in EBM-2 complete medium (Clonetics) and utilized at passage 5-10. Human alveolar epithelial cells (A549) were purchased from ATCC® and cultured in the same medium as the bovine endothelial cells, except that the endothelial cell growth supplement was omitted. All cells were maintained at 37° C. in a humidified atmosphere of 5% CO2 and 95% air. Both endothelial cell types grew to contact-inhibited monolayers with the typical cobblestone morphology (Garcia, J. G. N. et al. (1995) J. Cell. Physiol. 163:510-522; Liu, F. et al. (2001) Am. J. Respir. Cell. Mol. Biol. 24:711-719).
Electrical resistance of EC monolayers was measured using electrical cell impedance sensor system (Applied Biophysics Inc., Troy, N.Y.) as described in Garcia, J. G. N. et al. (2000) J. Appl. Physiol. 89:2333-2343. Cells grown on gold microelectrodes (10^−3 cm^2) in polycarbonate wells act as insulating particles, and the resistance across the monolayers (transendothelial electrical resistance, or TER) is measured in real time. As cells adhere on the microelectrode and intercellular cell contacts are formed or in response to agents which increase junctional integrity, the TER increases (Garcia, J. G. N. et al. (2001) J. Clin. Invest. 108:689-711). In contrast, cell retraction, rounding, or loss of adhesion is reflected by decreases in TER (Garcia, J. G. N. et al. (2000) J. Appl. Physiol. 89:2333-2343). These measurements provide a highly sensitive biophysical assay that indicates the state of cell shape, focal adhesion, and endothelial barrier function (Giaever, I. and Keese, C. R. (1993) Nature 366:591-592; Tiruppathi, C. et al. (1992) Proc. Natl. Acad. Sci. USA 89:7919-7923). All electrical resistance data are presented as normalized values. Briefly, current was applied across the electrodes by a 4000 Hz AC voltage source with an amplitude of 1 V in series with a 1 MΩ resistance to approximate a constant current source (−1 μA). The small gold electrode and the larger counter electrode (1 cm^2) were connected to a phase-sensitive lock-in amplifier (5301A; EG&G Instruments Corp, Princeton, N.J.) with a built in differential preamplifier (5316A; EG&G Instruments Corp.). The in-phase and out-of-phase voltages between the electrodes were monitored in real time with the lock-in amplifier and converted to scalar measurements of transendothelial impedance, of which resistance was the primary focus. Transendothelial electrical resistance was monitored for 30 min to establish a baseline resistance (Ro) which, for human lung endothelium, was typically between 8 to 12×10^3 Ω (wells with R0<7×10^3 Ω or R0 >15×10^3 Ω were rejected). For some experiments, total TER was vectorially resolved into components reflecting resistance to current flow beneath the cell layer (α) and resistance to current flow between adjacent cells (Rb) as described in Garcia et al. (2000) supra utilizing the method of Giaiver and Keese which models the endothelial monolayer mathematically (Giaever, I. and Keese, C. R. (1993) Nature 366:591-592). Thus, changes in α reflect alterations in the net state of cell-matrix adhesion, whereas changes in Rb reflect alterations in the integrity of cell-cell adhesion. TER values from each microelectrode were pooled at discrete time points and plotted versus time as the mean±standard error of the mean (Garcia et al. (2000) supra). […]

Question: For “HGF: heparin-binding glycoprotein, multifunctional cytokine, ligand of c-Met; purchased from R&D Systems”, which Rac activity (Rac GTPase) is on record?
Answer: The Rac activity was “rapidly and transiently increases Rac activity”.

Question: What about the “increase in TER (barrier enhancement)” value ([1]; HGF 100 ng/ml, at peak) of the same substance?
Answer: The value was ~50% and > 50%.

Question: And the “direct effect on TER” value ([1]; HGF 2-100 ng/ml, NK2 1-100 ng/ml)?
Answer: Its value is “increased TER in a dose-dependent manner”.

Question: And the “time at which elevation in TER is clearly evident” value ([1]; HGF 2 to 100 ng/ml)?
Answer: The value was 1 to 2 min.

Question: And the “further increase in TER above 100 ng/ml” value ([1]; HGF >100 ng/ml)?
Answer: Its value is “No further significant increases in TER”.

Question: What about the “time of peak TER increase” value ([1]; after exposure to 100 ng/ml HGF) of the same substance?
Answer: Its value is 15 to 20 min.

Question: And the “TER response to re-stimulation with HGF (10 ng/ml) at 2 hr” value ([1]; pretreatment with HGF at 10 and 100 ng/mL)?
Answer: The value was “significantly reduced the subsequent HGF responses”.

Question: And the “TER response to re-stimulation with HGF (10 ng/ml) at 2 hr” value ([1]; prior HGF stimulation at 1 ng/ml)?
Answer: Its value is “not altered”.

Question: And the “paracellular junction resistance (Rb)” value ([1]; vectorial partitioning of TER after HGF treatment)?
Answer: The value was “sharp increases”.
